Like-named read-outs stand apart in the source and are kept apart here.
Test system: porcine RBCs
Assay: Nonspecific binding of Lu-BSA to porcine RBCs (base-activated chemiluminescence)
Format: cell-based, pig
Settings: for activation at 1490 µM / inhibition at 1490 µM: Sus scrofa; for activation at 1490 µM: read-out: Percent difference from control
Method: Blood was collected from Landrace-Duroc swine from a closed herd. Pigs from this herd had previously expressed episodes of porcine stress syndrome (malignant hyperthermia) following halothane anesthesia. The blood was collected into acidic citrated dextrose solution in standard blood bags. The blood was diluted 1:10 in phosphate (0.1M) buffered saline (PBS), pH 7.4, in 10 ml aliquots, centrifuged in a clinical centrifuge, and the erythrocytes were resuspended in fresh PBS. The cells were stored at 4° C. until used in the various assays. The post-collection chronological age of the RBCs used for a particular assay is noted in the results for each assay. The cells were counted in an automated cell counter (Coulter ZBI, Coulter Electronics, Inc., Hialeah, Fla. 33010). Nonspecific binding of Lu-BSA to porcine RBCs was measured following treatment with hydrogen peroxide, pyruvate, and/or 3-amino-L-tyrosine at 4°, 37°, or 45° C. The exposure times for those agents were 15 min, 30 min, or 72 hours. The reagents were removed by centrifugation. Three binding protocols were followed: (1) 0.25 ml of 1:20 RBCs (19 days post collection) were incubated with 0.25 ml of 1 mg/ml Lu-BSA in PBS, pH 6.9, for 30 min at 37° C. and washed (Table 1); (2) 0.05 ml of packed RBCs (less than 24 hours post collection) were resuspended in 0.2 ml of the Lu-BSA solution and incubated overnight at 4° C. […] The cells in all three protocols were washed once in PBS, pH 7.4, and resuspended in PBS to final dilutions of 1:20 for (1) and 1:30 for (2) and (3). Following this preparation, 100 μl of each cell suspension were added to 500 μl of PBS, pH 7.4, in a scintillation vial. The vial was placed in the photometer and the solution was activated by the addition of 100 μl 0.1N NaOH. The settings for the photometer were as previously described for the Con A-Lu-BSA.

[1] = 1.49 mM preincubation and pyruvate 1.33 mM

Nc1cc(C[C@H](N)C(=O)O)ccc1O [3-aminotyrosine, 3-amino-L-tyrosine]
CL (counts/30 s) [1]: 964 ± 230 counts/30 s | Percent difference from control [1]: 9% | Lu-BSA binding above the 37° C. control (1.49 mM with hydrogen peroxide 11.7 mM, 37° C.): ≤ 14% | CL (30 s) (1.49 mM with hydrogen peroxide 11.7 mM, 37° C., 30 min): 663 ± 145 counts/30 s | Percent difference from control (1.49 mM with hydrogen peroxide 11.7 mM, 37° C., 30 min, vs 4° C. control): 74% | CL (30 s) (1.49 mM, 45° C., 30 min): 550 ± 126 counts/30 s | CL (counts/30 s) (1.49 mM, preincubated at 4° C. for 72 h, RBCs 72 hours post collection): 794 ± 156 counts/30 s | activation at 1490 µM (0.5 h, 1.49 mM, 45° C., 30 min, vs 4° C. control): 45% | activation at 1490 µM (72 h, 1.49 mM, preincubated at 4° C. for 72 h): -10% | inhibition at 1490 µM (1.49 mM, hydrogen peroxide 11.7 mM, 37° C., read-out: inhibition of Lu-BSA binding induced by hydrogen peroxide): 51% | inhibition at 1490 µM (RBCs stored at 4° C. in 1.49 mM for 72 hours, read-out: less Lu-BSA bound than RBCs stored in PBS): 10% | protection from the effects of pyruvate (Lu-BSA binding), in words (cells preincubated in 1.49 mM, then pyruvate 1.33 mM): protected them from the effects of pyruvate

— patent US4870002A, “Method of prevention of oxidative injury to cells” (priority 1985, dated 1989)
